Values of other authors as cited in patent publication US20050065130A1, “Pharmaceutical compositions and methods comprising combinations of 2-alkylidene-19-nor-vitamin D derivatives and a cyclooxgenase-2 inhibitor” (Pfizer Inc., priority 2003, published 2005).

For `C=C1/C(=C\C=C2/CCC[C@]3(C)[C@@H]([C@H](C)CCCC(C)(C)O)CC[C@@H]23)C[C@@H](O)C[C@@H]1O` [1,25-(OH)2D3, 1,25-dihydroxyvitamin D3, reference compound], the “serum calcium value” (as printed: twice the dose, at the 130 pmol dose) is listed as 13.8 mg/100 ml.

In the case of `C=C1[C@H](O)CC(=C/C=C2\CCC[C@]3(C)[C@@H]([C@H](C)CCCC(C)(C)O)CC[C@@H]23)C[C@H]1O` [2-Methylene-19-Nor-1,25-(OH)2D3, 1α,25-dihydroxy-2-methylene-19-nor-vitamin D3], the “bone calcium mobilization (in words)” value (chronic mode 7 days, both dose levels (130 and 260 pmol/day)) is listed as “extremely strong” and the “activity on bone calcium mobilization (serum calcium), times that of the native hormone 1,25-(OH)2D3” value (relative to 1,25-(OH)2D3, chronic mode 7 days) is listed as 10-100 times.
